“Also recorded” adds a separate entry of the source.

For data set [1], the system named is SNI rats. Briefly: Spared nerve injury (SNI) rats, von Frey monofilament test. In kind it is in vivo, rat. How it is done: FIG. 3B. Mechanical pain threshold assessment (von Frey monofilament test) of SNI rats' left hindpaws. Each SNI rat received either EXAMPLE-106, -107, and -115 (each 30 mg/kg, 1 mL I.P.), or vehicle (1 mL I.P. 2% DMSO in 0.5% HPC). Sham rats also received vehicle I.P. injections. […] The sham-vehicle serves as a positive control. Thermal and mechanical pain responses were measured once every hour for 8 consecutive hours after I.P. treatment (n=8 rats per treatment group).
FIG. 4. Mechanical pain threshold assessment (von Frey monofilament test) of left hindpaws in another cohort of SNI rats. Each SNI rat received either EXAMPLE-128, -130, -132, or Z944 (as a reference compound, each 10 mg/kg, 2 mL oral gavage, P.O.). […] Mechanical pain responses were measured at pre-dosing, 1, 2, 4, and 6 hours post-treatment using von Frey monofilament test (n=8 rats per group).
In additional examples shown here, the analgesic effects were further evaluated in another rat species. Baseline thermal and mechanical thresholds of male rats (Sprague-Dawley rats, 275 g-325 g, Harlan) were taken prior to surgery; baseline thresholds were measured on the rats' left hindpaws. Thirty-two rats underwent the SNI surgery on their left hind leg; 8 rats underwent surgery without injury of the nerves as a sham group. Two weeks post-surgery, the thermal thresholds of each rat were reassessed. […] Each rat received either EXAMPLE-106, -107, -115 (each 30 mg/kg, 1 mL I.P.), or vehicle (2% DMSO in 0.5% HPC). Thermal and mechanical thresholds were measured at 1, 2, 3, 4, 5, 6, 7, and 8 hours post-treatment/dosing. […] The drug actions started around 1 hour post-injection and peaked between 2 and 3 hours, and the drug effects gradually declined to pre-treatment levels over 6-7 hours (FIGS. 3A and B).
In another cohort of SNI rats ((n=8 per group)), mechanical thresholds were measured at pre-dosing, 1, 2, 4, and 6 hours post-treatment using von Frey monofilament test.

For a further data set, the system named is SNL rats. Briefly: Spinal nerve ligation (SNL) rats, von Frey monofilament test. The class given is in vivo, rat. On the procedure: FIG. 5A. Mechanical pain threshold assessment (von Frey monofilament test) of spinal nerve ligation (SNL) rats' left hindpaws. Each SNL rat received either EXAMPLE-128, at 3, 10 or 30 mg/kg (2 mL oral gavage, P.O.), or vehicle (2 mL 2% DMSO in 0.5% HPC, P.O.). […] Mechanical pain responses were measured at 1, 2, 4 and 6 hours after treatment (n=8 rats per treatment group).
FIG. 5B. Mechanical pain threshold assessment (von Frey monofilament test) of SNL rats' left hindpaws. In the same cohort of animals, each SNL rat received either EXAMPLE-128, -130, Z944 (as a reference compound, each at 30 mg/kg, 2 mL oral gavage, P.O.), or vehicle (2 mL 2% DMSO in 0.5% HPC, P.O.). The degree of analgesia against allodynia in the order of EXAMPLE-128>Z944>EXAMPLE-130 compared to the […] group. Mechanical pain responses were measured at 1, 2, 4 and 6 hours after treatment (n=8 rats per treatment group).
The spinal nerve ligation (SNL) in rats is another commonly used neuropathic pain model (Kim & Chung, 1992). The analgesic effect of the selected EXAMPLE-128 was tested in this model. Baseline mechanical thresholds on the rats' left hindpaws of male rats (Sprague-Dawley rats, 300 g-350 g, Harlan) were taken using von Frey hair monofilaments prior to surgery. Ligation of the L5 peripheral nerve was made on the left side under anesthesia. Total 32 rats underwent surgery (n=8 rats per treatment group). Ten days post-surgery, approximately 75-85(%) reduction in mechanical pain was observed, confirming the presence of mechanical allodynia in the SNL rats. Each rat received either EXAMPLE-128 (at 3, 10 and 30 mg/kg, each dose in […], P.O.), or vehicle (2% DMSO in 0.5% HPC, […], P.O.). Mechanical thresholds were measured at 1, 2, 4, and 6 hours post-treatment/dosing. […] The drug actions started around 1 hour post-injection and peaked between 1 and 2 hours, and the drug effects gradually declined to pre-treatment levels in 6 hours (FIG. 5A). After the drug had been eliminated, and the thresholds had returned to initial mechanical allodynia, a comparative test of EXAMPLE-128 and -130 vs Z944 (each at 30 mg/kg, P.O.) was conducted in the same cohort of SNL rats. The analgesic efficacy is in the order of EXAMPLE-128>Z944>EXAMPLE-130 (FIG. 5B).

Data set [2] in a line: Metabolic stability in human liver microsomes. The class given is in vitro ADME. The source says: (§1) In vitro data of metabolic stability and protein binding as well as in vivo pharmacokinetic data for compounds of the invention can be generated using the techniques disclosed in, e.g., Obach, R. S. et al., J. Pharmacol. Exp. Ther. 283(1): 46-58 (1997), which is hereby incorporated by reference in its entirety. Various biological, pharmacokinetic and other properties of the compounds, including hepatic microsomal stability, determination of metabolites, binding to proteins such as plasma protein binding, and in vivo studies, including single-dose and multi-dose pharmacokinetic studies, can be determined using the protocols described in that publication and the publications cited therein. Other aspects and advantages of the present invention will become apparent from the above detailed description, as illustrated by way of example of the principles of the invention. The scope of the invention is to be defined by the claims appended hereto and their equivalents. Selected pharmacokinetic studies in vitro and in vivo in rats were performed for preferred compounds, for example EXAMPLE-128 and compared with two reference compounds ML218 and Z944 by a contract research organization (BioDuro, Inc., San Diego, US). Tables 3A and 3B summarize some of the in vitro and vivo pharmacodynamic and pharmacokinetic parameters, respectively.

A short description of data set [3]: Metabolic stability in rat liver microsomes. In kind it is in vitro ADME.
Text: as §1

Data set [4] can be described thus: Plasma protein binding, human. In kind it is in vitro ADME.
Text: as §1

Data set [5] can be described thus: Plasma protein binding, rat. The class given is in vitro ADME.
Text: as §1

A short description of the next data set: Plasma stability, human. The class given is in vitro ADME.
Text: as §1

The nature of the next data set: Plasma stability, rat. In kind it is in vitro ADME.
Text: as §1

The nature of a further data set: Rat pharmacokinetics. The class given is in vivo.
Text: as §1

For data set [6], the system named is SNI rats. The data set can be described thus: Spared nerve injury (SNI) rats, von Frey monofilament test. The class given is in vivo, rat. Particulars: pain in rats, 30 mg/kg, P.O.
Where [7] appears, read: SNL rats, 3, 10 and 30 mg/kg P.O.

As to `CC(C)(C)NC(=O)CN1CCC2(CC1)CC2NC(=O)c1cc(F)cc(Cl)c1` (single isomer, unassigned) [Example 128, (S)—N-(6-(2-(tert-Butylamino)-2-oxoethyl)-6-azaspiro[2.5]octan-1-yl)-3-chloro-5-fluorobenzamide or (R)—N-(6-(2-(tert-Butylamino)-2-oxoethyl)-6-azaspiro[2.5]octan-1-yl)-3-chloro-5-fluorobenzamide], the “duration of elevated mechanical thresholds” value in the data set on SNI rats [1] (10 mg/kg P.O.) was “approximately 4 hours”. Further, the “mechanical pain threshold of left hindpaw (allodynia)” value with SNI rats [1] (10 mg/kg oral gavage, P.O., 10 mg/kg) is “elevated mechanical thresholds; also recorded: reduced allodynia”; with SNL rats (SNL rats, 3, 10 or 30 mg/kg P.O.), “elevated mechanical thresholds in a dose-related manner; also recorded: reduced allodynia compared to the SNI-vehicle group in a dose-related manner”. In the data set on SNL rats (setting [7]), the “start of drug action post-injection” value was “around 1 hour”. The “time for drug effects to decline to pre-treatment levels” value with SNL rats (setting [7]) stood at 6 h. In addition, the “order of analgesic efficacy against allodynia” value with SNL rats (SNL rats, each 30 mg/kg P.O.) is “EXAMPLE-128>Z944>EXAMPLE-130”. For the same compound, in the data set on SNL rats (pain in rats, 30 mg/kg, P.O.), the “SNL Model Mechanical % of baseline” value is given as 129 ± 28 % of baseline. Further, the half-life was 6.08 h in data set [2]; 5.25 h in data set [3]; 3.34 h in the data set “Rat pharmacokinetics” (plasma, iv, read-out: Plasma t1/2 (h) iv (converted)); 3.66 h in “Rat pharmacokinetics” (plasma, po, read-out: Plasma t1/2 (h) po (converted)). The microsomal CLint in [2] was determined as 1.9 µL/min/mg; in data set [3], 2.2 µL/min/mg. Further, the recovery turned out to be 98.3% in data set [4] and 90.4% in data set [5]. Further, the fraction unbound is 0.043 in [4] (read-out: PPB % (Human) (converted)) and 0.242 in data set [5] (read-out: PPB % (Rat) (converted)). For the same compound, the “Plasma Stability @ 5 h % (Human)” value in the data set “Plasma stability, human” was 95.7/ %. Besides, in “Plasma stability, rat”, the “Plasma Stability @ 5 h % (Rat)” value came out at 98.3%. The “Rat PK AUCtotal (μM*h)” value in “Rat pharmacokinetics” is 4.1 h/µM. Moreover, in “Rat pharmacokinetics” (plasma, read-out: Rat PK AUCfree), the AUC was determined as 1 µM·h. The bioavailability in the data set “Rat pharmacokinetics” (plasma, read-out: Rat PK F (%) bioavailability) was found to be 62%. For the same compound, the “SNI-Model Mechanical % of baseline” value in the data set on SNI rats [6] was 45 ± 15 % of baseline.

The values are drawn from patent US10562857B2 (AFASCI, Inc., priority 2015, dated 2020).
